Data as given in patent US20150105252A1, “SUBSTITUTED PYRAZOLES AS HERBICIDES” (E I DU PONT DE NEMOURS AND COMPANY, priority 2013, published 2015).

Experiments:
lambsquarters [1] = assay: Test C preemergence; type: in vivo, Chenopodium album
Method in brief: (§1)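 Greenhouse pot test: preemergence application onto freshly seeded loam/sand mix, postemergence application onto seedlings (1–4 leaves, 2–18 cm) in peat-vermiculite substrate. Responses scored visually 13 to 15 days later relative to controls, where 0 means no effect and 100 means complete control; a dash indicates no result.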

blackgrass = assay: Test C postemergence; type: in vivo, Alopecurus myosuroides
Method in brief: as §1

ryegrass, Italian = assay: Test C postemergence; type: in vivo, Lolium multiflorum
Method in brief: as §1

galium = assay: Test C postemergence; type: in vivo, Galium aparine
Method in brief: as §1

crabgrass, large = assay: Test C postemergence; type: in vivo, Digitaria sanguinalis
Method in brief: as §1

foxtail, giant = assay: Test C postemergence; type: in vivo, Setaria faberii
Method in brief: as §1

lambsquarters [2] = assay: Test C postemergence; type: in vivo, Chenopodium album
Method in brief: as §1

morningglory = assay: Test C postemergence; type: in vivo, Ipomoea coccinea
Method in brief: as §1

nutsedge, yellow = assay: Test C postemergence; type: in vivo, Cyperus esculentus
Method in brief: as §1

barnyardgrass = assay: Test C postemergence; type: in vivo, Echinochloa crus-galli
Method in brief: as §1

oilseed rape = assay: Test C postemergence; type: in vivo, Brassica napus
Method in brief: as §1

waterhemp = assay: Test C postemergence; type: in vivo, Amaranthus rudis
Method in brief: as §1

oat, wild = assay: Test C postemergence; type: in vivo, Avena fatua
Method in brief: as §1

kochia = assay: Test C postemergence; type: in vivo, Kochia scoparia
Method in brief: as §1

velvetleaf = assay: Test C postemergence; type: in vivo, Abutilon theophrasti
Method in brief: as §1

[3] = Postemergence, 31 g ai/ha, visually evaluated after 13 to 15 days
[4] = postemergence, 62 g ai/ha, scale 0 to 100
[5] = postemergence, 250 g ai/ha, scale 0 to 100 (0 no effect, 100 complete control)
[6] = postemergence, 125 g ai/ha, scale 0 to 100, 0 no effect, 100 complete control

SMILES: CCc1cc(C(=O)NC2CC2)nn1Cc1ccnc(OC(F)F)c1 [Compound 98]
- Plant response rating (scale of 0 to 100), Lambsquarters (lambsquarters [1]; Preemergence, 250 g ai/ha): 100
- Lambsquarters plant response rating (lambsquarters [1]; preemergence, 31 g ai/ha, visual rating, scale 0 to 100 (0 no effect, 100 complete control), 13 to 15 days): 100
- Plant response rating, Lambsquarters (lambsquarters [1]; preemergence, 62 g ai/ha, 13 to 15 days, scale 0 to 100, 0 = no effect, 100 = complete control): 100
- Lambsquarters plant response rating (lambsquarters [1]; preemergence, 125 g ai/ha, scale 0 to 100, 0 is no effect, 100 is complete control): 100
- Plant response rating (scale of 0 to 100 where 0 is no effect and 100 is complete control), Blackgrass (blackgrass; [3]): 5
- Blackgrass plant response rating (blackgrass; [4]): 5
- Plant response rating, Blackgrass (blackgrass; [5]): 40
- Plant response rating, Blackgrass (blackgrass; [6]): 25
- Plant response rating (scale of 0 to 100 where 0 is no effect and 100 is complete control), Ryegrass, Italian (ryegrass, Italian; [3]): 5
- Ryegrass, Italian plant response rating (ryegrass, Italian; [4]): 10
- Plant response rating, Ryegrass, Italian (ryegrass, Italian; [5]): 10
- Plant response rating, Ryegrass, Italian (ryegrass, Italian; [6]): 10
- Plant response rating (scale of 0 to 100 where 0 is no effect and 100 is complete control), Galium (galium; [3]): 50
- Galium plant response rating (galium; [4]): 55
- Plant response rating, Galium (galium; [5]): 90
- Plant response rating, Galium (galium; [6]): 65
- Plant response rating (scale of 0 to 100 where 0 is no effect and 100 is complete control), Crabgrass, Large (crabgrass, large; [3]): 10
- Crabgrass, Large plant response rating (crabgrass, large; [4]): 15
- Plant response rating, Crabgrass, Large (crabgrass, large; [5]): 50
- Plant response rating, Crabgrass, Large (crabgrass, large; [6]): 45
- Plant response rating (scale of 0 to 100 where 0 is no effect and 100 is complete control), Foxtail, Giant (foxtail, giant; [3]): 45
- Foxtail, Giant plant response rating (foxtail, giant; [4]): 50
- Plant response rating, Foxtail, Giant (foxtail, giant; [5]): 85
- Plant response rating, Foxtail, Giant (foxtail, giant; [6]): 55
- Plant response rating (scale of 0 to 100 where 0 is no effect and 100 is complete control), Lambsquarters (lambsquarters [2]; [3]): 60
- Lambsquarters plant response rating (lambsquarters [2]; [4]): 70
- Plant response rating, Lambsquarters (lambsquarters [2]; [5]): 95
- Plant response rating, Lambsquarters (lambsquarters [2]; [6]): 90
- Plant response rating (scale of 0 to 100 where 0 is no effect and 100 is complete control), Morningglory (morningglory; [3]): 45
- Morningglory plant response rating (morningglory; [4]): 50
- Plant response rating, Morningglory (morningglory; [5]): 90
- Plant response rating, Morningglory (morningglory; [6]): 70
- Plant response rating (scale of 0 to 100 where 0 is no effect and 100 is complete control), Nutsedge, Yellow (nutsedge, yellow; [3]): 0
- Nutsedge, Yellow plant response rating (nutsedge, yellow; [4]): 5
- Plant response rating, Nutsedge, Yellow (nutsedge, yellow; [5]): 5
- Plant response rating, Nutsedge, Yellow (nutsedge, yellow; [6]): 5
- Plant response rating (scale of 0 to 100 where 0 is no effect and 100 is complete control), Barnyardgrass (barnyardgrass; [3]): 0
- Barnyardgrass plant response rating (barnyardgrass; [4]): 0
- Plant response rating, Barnyardgrass (barnyardgrass; [5]): 35
- Plant response rating, Barnyardgrass (barnyardgrass; [6]): 5
- Plant response rating (scale of 0 to 100 where 0 is no effect and 100 is complete control), Oilseed Rape (oilseed rape; [3]): 20
- Oilseed Rape plant response rating (oilseed rape; [4]): 25
- Plant response rating, Oilseed Rape (oilseed rape; [5]): 30
- Plant response rating, Oilseed Rape (oilseed rape; [6]): 30
- Plant response rating (scale of 0 to 100 where 0 is no effect and 100 is complete control), Waterhemp (waterhemp; [3]): 10
- Waterhemp plant response rating (waterhemp; [4]): 45
- Plant response rating, Waterhemp (waterhemp; [5]): 90
- Plant response rating, Waterhemp (waterhemp; [6]): 85
- Plant response rating (scale of 0 to 100 where 0 is no effect and 100 is complete control), Oat, Wild (oat, wild; [3]): 5
- Oat, Wild plant response rating (oat, wild; [4]): 5
- Plant response rating, Oat, Wild (oat, wild; [5]): 25
- Plant response rating, Oat, Wild (oat, wild; [6]): 10
- Plant response rating (scale of 0 to 100 where 0 is no effect and 100 is complete control), Kochia (kochia; [3]): 40
- Kochia plant response rating (kochia; [4]): 75
- Plant response rating, Kochia (kochia; [5]): 85
- Plant response rating, Kochia (kochia; [6]): 85
- Plant response rating (scale of 0 to 100 where 0 is no effect and 100 is complete control), Velvetleaf (velvetleaf; [3]): 15
- Velvetleaf plant response rating (velvetleaf; [4]): 20
- Plant response rating, Velvetleaf (velvetleaf; [5]): 50
- Plant response rating, Velvetleaf (velvetleaf; [6]): 20
